Reference: patent US7829560B2, “1,4-disubstituted naphthalenes as inhibitors of P38 MAP kinase” (Arqule, Inc., priority 2004, dated 2010)

Assays:
p38α = target: T1, p38α (Homo sapiens, UniProt Q16539); assay: p38 MAP Kinase assay: inhibition of ATF2 phosphorylation, ELISA; type: biochemical; conditions: ATF2 phosphorylation; read-out: [ENZ] P38 ALPHA, IC50, ELISA
T1 construct: p38 MAP Kinases are recombinant human full-length proteins with an amino-terminal GST fusion; GST (N); purchased Upstate Biotechnology Inc; host or cells: E. coli
T1 sequence (Q16539 whole entry, the tested form may be a part): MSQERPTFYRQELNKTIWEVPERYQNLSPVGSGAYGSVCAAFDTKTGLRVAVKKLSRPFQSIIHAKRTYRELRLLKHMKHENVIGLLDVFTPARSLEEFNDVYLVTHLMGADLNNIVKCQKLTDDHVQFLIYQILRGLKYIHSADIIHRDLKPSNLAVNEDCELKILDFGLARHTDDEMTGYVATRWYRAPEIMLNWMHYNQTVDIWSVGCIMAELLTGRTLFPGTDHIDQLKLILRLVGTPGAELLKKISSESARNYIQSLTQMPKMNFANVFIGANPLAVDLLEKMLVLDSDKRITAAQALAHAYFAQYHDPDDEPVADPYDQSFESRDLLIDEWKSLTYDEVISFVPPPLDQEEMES
Procedure, shortened: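 In vitro phosphorylation of ATF2 at Thr69 by recombinant human GST-p38 MAP kinase, read by anti-phospho-ATF2 ELISA at 450 nm. Enzyme and compound pre-incubated 15 min at RT, then 30 min reaction at 37 °C with 40 μM ATP and 1.25 μM ATF2; buffer with or without 1% HSA (Method II or I).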

[1] = test system: TNFα release from THP-1 cells; assay: Inhibition of TNFα release from LPS-stimulated THP-1 cells, ELISA; type: cell-based; conditions: Homo sapiens, THP-1, THP-1 cells, read-out: [CELL] THP-1, IC50, TNF ALPHA, ELISA
Procedure, shortened: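 TNFα released into supernatant after 18 h of 10 μg/ml LPS stimulation was quantified by ELISA and IC50 taken as 50% reduction by non-linear regression. THP-1 cells (10^6/ml; medium with 10% FBS, serum-free or 1% HSA) saw compound for 30 min at 37 °C beforehand; final DMSO ≤0.5%.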

IC50 (p38α) [µM] | IC50 [1] [µM] | SMILES
1.02 | 4.23 | O=C(Nc1ccc(OCCN2CCOCC2)c2ccccc12)c1cc(F)cc(N2CCOCC2)c1 [Compound B206, 3-Fluoro-5-morpholin-4-yl-N-[4-(2-morpholin-4-ylethoxy)-1-naphthyl]benzamide]
0.513 | > 10 | CC(C)(C)CNc1cc(F)cc(C(=O)Nc2ccc(OCCN3CCOCC3)c3ccccc23)c1 [Compound B209, 3-[(2,2-Dimethylpropyl)amino]-5-fluoro-N-[4-(2-morpholin-4-ylethoxy)-1-naphthyl]benzamide]
> 10 | > 10 | CC1CN(c2cc(F)cc(C(=O)Nc3ccc(OCCN4CCOCC4)c4ccccc34)c2)CC(C)O1 (centres unmarked) [Compound B211]
> 10 | > 10 | O=C(Nc1ccc(OCCN2CCOCC2)c2ccccc12)c1cc(F)cc(N2Cc3ccccc3C2)c1 [Compound B212]
> 10 | > 10 | O=C(Nc1ccc(OCCN2CCOCC2)c2ccccc12)c1cc(F)cc(N2CCC3CCCCC3C2)c1 (centres unmarked) [Compound B213]
0.876 | 3.58 | CC1CCN(c2cc(C(=O)Nc3ccc(OCCN4CCOCC4)c4ccccc34)cc(Cl)n2)CC1 [Compound B218]
1.05 | 3.19 | CC1CCC(Oc2cc(F)cc(C(=O)Nc3ccc(OCCN4CCOCC4)c4ccccc34)c2)CC1 (centres unmarked) [Compound B234, 3-Fluoro-5-[(4-methylcyclohexyl)oxy]-N-[4-(2-morpholin-4-ylethoxy)-1-naphthyl]benzamide]
> 10 | > 10 | CC(C)(C)C1CCC(Oc2cc(F)cc(C(=O)Nc3ccc(OCc4ccncc4)c4ccccc34)c2)CC1 (centres unmarked) [Compound B236]
1.01 | 1.01 | O=C(Nc1ccc(CCCN2CCOCC2)c2ccccc12)c1cc(F)cc(N2CCOCC2)c1 [Compound B240, 3-Fluoro-5-morpholin-4-yl-N-[4-(3-morpholin-4-yl-propyl)-naphthalen-1-yl]-benzamide]
8.25 | 9.42 | O=C(Nc1ccc(NCCN2CCOCC2)c2ccccc12)c1cc(F)cc(N2CCOCC2)c1 [Compound B241]
2.03 | 10.6 | O=C(Nc1ccc(NCCN2CCOCC2)c2ccccc12)c1cc(F)cc(N2CCCCC2)c1 [Compound B242]
> 10 | > 10 | Cc1cc(COc2ccc(NC(=O)c3cc(F)cc(N4CCC(C)CC4)c3)c3ccccc23)no1 [Compound B243]
> 10 | > 10 | O=C(Nc1ccc(OCCN2CCOCC2)c2ncccc12)c1cc(F)cc(N2CCOCC2)c1 [Compound B244]
0.631 | 1.14 | Cc1cc(F)ccc1-c1cccc(C(=O)Nc2ccc(OCCN3CCOCC3)c3ccccc23)c1 [Compound B245]
0.0305 | 0.042 | O=C(Nc1ccc(Oc2ccnc(NC3CCCC3)n2)c2ccccc12)c1cc(F)cc(N2CCOCC2)c1 [Compound B250, N-(4-{[2-(Cyclopentylamino)pyrimidin-4-yl]oxy}-1-naphthyl)-3-fluoro-5-morpholin-4-ylbenzamide]
0.135 | 0.765 | CNc1nccc(Oc2ccc(NC(=O)c3cc(F)cc(N4CCOCC4)c3)c3ccccc23)n1 [Compound B251, 3-Fluoro-N-(4-{[2-(methylamino)pyrimidin-4-yl]oxy}-1-naphthyl)-5-morpholin-4-ylbenzamide]
5.06 | 0.765 | CC1CCN(c2cc(F)cc(C(=O)Nc3ccc(Oc4ccnc(N5CCOCC5)n4)c4ccccc34)c2)CC1 [Compound B265, 3-Fluoro-5-(4-methylpiperidin-1-yl)-N-{4-[(2-morpholin-4-ylpyrimidin-4-yl)oxy]-1-naphthyl}benzamide]
0.363 | 0.256 | CC1CCN(c2cc(F)cc(C(=O)Nc3ccc(Oc4ccnc(NC5CCCC5)n4)c4ccccc34)c2)CC1 [Compound B266, N-(4-{[2-(Cyclopentylamino)pyrimidin-4-yl]oxy}-1-naphthyl)-3-fluoro-5-(4-methylpiperidin-1-yl)benzamide]
0.162 | 0.152 | CSc1nccc(Oc2ccc(NC(=O)c3cccc(-c4ccc(F)cc4C)c3)c3ccccc23)n1 [Compound B269, 4′-Fluoro-2′-methyl-biphenyl-3-carboxylic acid [4-(2-methylsulfanylpyrimidin-4-yloxy)-naphthalen-1-yl]-amide]
> 10 | 4.03 | O=C(Nc1ccc(OCCN2CCOCC2)c2ccccc12)c1cccc(-c2ccc(C(F)(F)F)cc2)c1 [Compound B271]
> 10 | > 10 | O=C(Nc1ccc(OCCN2CCOCC2)c2ccccc12)c1cccc(-c2ccc3c(c2)OCO3)c1 [Compound B273]
> 10 | > 10 | CC(=O)c1ccc(-c2cccc(C(=O)Nc3ccc(OCCN4CCOCC4)c4ccccc34)c2)cc1 [Compound B274]
3.98 | 3.57 | O=C(Nc1ccc(OCCN2CCOCC2)c2ccccc12)c1cccc(-c2ccc(F)c(Cl)c2)c1 [Compound B275]
> 10 | > 10 | Cc1ccc(-c2cccc(C(=O)Nc3ccc(OCCN4CCOCC4)c4ccccc34)c2)cc1C [Compound B276]
0.777 | 1.84 | O=C(Nc1ccc(OCCN2CCOCC2)c2ccccc12)c1cccc(-c2ccc(F)cc2)c1 [Compound B277]

IC50 (p38α) [µM] | IC50 [1] [µM] | SMILES
0.935 | 3.69 | O=C(Nc1ccc(OCCN2CCOCC2)c2ccccc12)c1cccc(-c2ccccc2F)c1 [Compound B278, 2′-Fluoro-biphenyl-3-carboxylic acid [4-(2-morpholin-4-yl-ethoxy)-naphthalen-1-yl]-amide]
> 10 | > 10 | CC(=O)c1cccc(-c2cccc(C(=O)Nc3ccc(OCCN4CCOCC4)c4ccccc34)c2)c1 [Compound B279]
5.6 | 3.52 | O=C(Nc1ccc(OCCN2CCOCC2)c2ccccc12)c1cccc(-c2cc(F)ccc2F)c1 [Compound B280]
> 10 | > 10 | C=Cc1ccc(-c2cccc(C(=O)Nc3ccc(OCCN4CCOCC4)c4ccccc34)c2)cc1 [Compound B281]
3.67 | 4.77 | O=C(Nc1ccc(OCCN2CCOCC2)c2ccccc12)c1cccc(-c2cccc(Cl)c2Cl)c1 [Compound B282]
> 10 | > 10 | O=C(Nc1ccc(OCCN2CCOCC2)c2ccccc12)c1cccc(-c2ccc(Cl)c(Cl)c2)c1 [Compound B283]
> 10 | > 10 | COc1ccc(-c2cccc(C(=O)Nc3ccc(OCCN4CCOCC4)c4ccccc34)c2)cc1 [Compound B284]
> 10 | 9.79 | N#Cc1ccc(-c2cccc(C(=O)Nc3ccc(OCCN4CCOCC4)c4ccccc34)c2)cc1 [Compound B285]
> 10 | > 10 | CCOc1cccc(-c2cccc(C(=O)Nc3ccc(OCCN4CCOCC4)c4ccccc34)c2)c1 [Compound B286]
0.934 | 5 | Cc1ccc(C)c(-c2cccc(C(=O)Nc3ccc(OCCN4CCOCC4)c4ccccc34)c2)c1 [Compound B287, 2′,5′-dimethyl-biphenyl-3-carboxylic acid [4-(2-morpholin-4-yl-ethoxy)-naphthalen-1-yl]-amide]
2.72 | 10.1 | O=C(Nc1ccc(OCCN2CCOCC2)c2ccccc12)c1cccc(-c2cccc(F)c2F)c1 [Compound B288]
1.47 | 3.09 | COc1ccc(F)cc1-c1cccc(C(=O)Nc2ccc(OCCN3CCOCC3)c3ccccc23)c1 [Compound B289]
> 10 | > 10 | COc1ccc(-c2cccc(C(=O)Nc3ccc(OCCN4CCOCC4)c4ccccc34)c2)cc1F [Compound B290]
9.19 | 6.14 | CCc1ccccc1-c1cccc(C(=O)Nc2ccc(OCCN3CCOCC3)c3ccccc23)c1 [Compound B291]
> 10 | > 10 | COc1cccc(-c2cccc(C(=O)Nc3ccc(OCCN4CCOCC4)c4ccccc34)c2)c1OC [Compound B292]
10.3 | > 10 | Cc1cc(Cl)ccc1-c1cccc(C(=O)Nc2ccc(OCCN3CCOCC3)c3ccccc23)c1 [Compound B293]
> 10 | > 10 | COc1ccc(C(C)C)cc1-c1cccc(C(=O)Nc2ccc(OCCN3CCOCC3)c3ccccc23)c1 [Compound B294]
5.03 | 2.83 | O=C(Nc1ccc(OCCN2CCOCC2)c2ccccc12)c1cccc(-c2cc(Cl)ccc2Cl)c1 [Compound B295]
1.88 | 8.71 | Cc1cccc(-c2cccc(C(=O)Nc3ccc(OCCN4CCOCC4)c4ccccc34)c2)c1C [Compound B296]
> 10 | > 10 | O=C(Nc1ccc(OCCN2CCOCC2)c2ccccc12)c1cccc(-c2cccc(OC(F)(F)F)c2)c1 [Compound B297]
7.37 | > 10 | CSc1cccc(-c2cccc(C(=O)Nc3ccc(OCCN4CCOCC4)c4ccccc34)c2)c1 [Compound B298]
> 10 | > 10 | Cc1ccc(-c2cccc(C(=O)Nc3ccc(OCCN4CCOCC4)c4ccccc34)c2)c(C)c1 [Compound B299]
9.08 | 9.06 | Cc1cc(-c2cccc(C(=O)Nc3ccc(OCCN4CCOCC4)c4ccccc34)c2)ccc1Cl [Compound B300]
> 10 | > 10 | CCOc1ccc(Cl)cc1-c1cccc(C(=O)Nc2ccc(OCCN3CCOCC3)c3ccccc23)c1 [Compound B301]
